Assay results taken from US20250270579A1, “PLANTS WITH ALTERED ROOT AND SHOOT ARCHITECTURE AND METHODS FOR OBTAINING AND USING SAME” (IOWA STATE UNIVERSITY RESEARCH FOUNDATION, INC., priority 2024, published 2025).

Assays:
maize primary roots [1] = test: In vivo auxin accumulation assay in dissected primary roots; parameters: species or system Zea mays
Protocol: In vivo auxin transport assays. Auxin accumulation assays were performed as previously described (Strader and Bartel, “The Arabidopsis PLEIOTROPIC DRUG RESISTANCE8/ABCG36 ATP Binding Cassette Transporter Modulates Sensitivity to the Auxin Precursor Indole-3-Butyric Acid,” The Plant Cell 21:1992-2007 (2009), which is hereby incorporated by reference in its entirety). […] Sections were equilibrated in 40 μL of uptake buffer (20 mM MES, 10 mM sucrose, and 0.5 mM CaSO4, pH 5.6) for 30 minutes at room temperature (RT). 40 μL of 50 nM 3H-IAA was added to each sample and incubated at RT for 1 hour. Samples were rinsed 3 times with […] of uptake buffer. 3H-IAA in tissue samples was measured using a scintillation counter as previously described (Strader and Bartel, “The Arabidopsis PLEIOTROPIC DRUG RESISTANCE8/ABCG36 ATP Binding Cassette Transporter Modulates Sensitivity to the Auxin Precursor Indole-3-Butyric Acid,” The Plant Cell 21:1992-2007 (2009), which is hereby incorporated by reference in its entirety). Samples were moved to scintillation vials containing CytoScint (MP Biomedicals) and disintegrations per minute (DPM) were measured using a scintillation counter (Beckman Coulter LS-6500).

ZmPILS6 = test: Auxin transport assay in yeast expressing ZmPILS6; format: cell-based, Zea mays; conditions: yeast expressing ZmPILS6 compared to empty vector control
Protocol: Auxin transport assays in yeast. Transport assays of radiolabeled indole-3-acetic acid (^3H-IAA) were performed as previously described (Michniewicz, et al., “Transporter of IBA1 Links Auxin and Cytokinin to Influence Root Architecture,” Developmental Cell 50:599-609.e4 (2019), which is hereby incorporated by reference in its entirety). Briefly, pCC13 was transformed into Saccharomyces cerevisiae strain JBY575. Single yeast colonies were grown in liquid-URA selective media overnight at 30° C. Yeast were resuspended in 0.1M MES (pH 4.6) with 2% dextrose to an OD600 of 5. 100 μL of resuspended cells were added to a 1.5 mL Eppendorf tube and added 100 μL of 50 nM 3H-IAA and incubated at RT for 30 minutes. Yeast cells were centrifuged for 15 seconds before removing the supernatant and washing 3 times with MES solution. Cells were resuspended in 100 μL of MES buffer and ^3H-IAA was measured using a scintillation counter. For each plasmid expressing yeast, 12 biological replicates were statistically analyzed using a t test.

maize primary roots [2] = test: Auxin response assay (rolled towel), primary root length; format: in vivo, Zea mays; conditions: pils6-1 and pils6-3 roots compared to W22 and B73, 10 μM IAA
Protocol: Auxin response assays were performed using the rolled towel assay as previously described (Draves, “Maize Seedling Growth and Hormone Response Assays Using the Rolled Towel Method,” Current Protocols 2: e562 (2022), which is hereby incorporated by reference in its entirety) using 20-40 biological replicates per genotype and treatment. Maize kernels were surface sterilized with 6% bleach and planted on germination paper and placed vertically in a 2-L beaker with 600 mL of 0.5×Linsmaier and Skoog (LS) media. Seedlings were grown for 3 days after germination (DAG) and then treated with 10 μM indole-3-acetic acid (IAA) or an equal volume 95% ethanol for 7 additional days.

maize primary roots [3] = test: Proteomic profiling of maize roots with and without auxin treatment; format: in vivo, Zea mays; conditions: 10 μM IAA
Protocol: For proteomics analysis, W22 and pils6-1 kernels were surface sterilized and planted in rolled towels as described above. Two days after planting, ungerminated kernels were removed from the assay. Five-day-old seedlings were removed from the rolled towels and floated on 0.5×LS media supplemented with 10 μM IAA in 0.5×LS or an equal volume of 95% ethanol in 0.5×LS for 1 hour. For each biological replicate, total root tissue from 5 seedlings was excised using a scalpel and pooled prior to flash freezing in liquid nitrogen. Three biological replicates were generated per genotype and treatment.
Proteomics. Protein extraction and peptide generation. Protein extraction and peptide digestion was performed as previously described (Song et al., “Heterotrimeric G-Protein-Dependent Proteome and Phosphoproteome in Unstimulated Arabidopsis Roots,” Proteomics 18: e1800323 (2018), which is hereby incorporated by reference in its entirety). Briefly, total protein was extracted from […] of 5-day-old primary root tissue (W22 and pils6-1) using the phenol-FASP method as previously detailed (Song et al., “Assessment and Refinement of Sample Preparation Methods for Deep and Quantitative Plant Proteome Profiling,” Proteomics 18: e1800220 (2018); Song et al., “Quantitative Profiling of Protein Abundance and Phosphorylation State in Plant Tissues Using Tandem Mass Tags” in Plant Proteomics: Methods and Protocols, Methods in Molecular Biology., J. V. Jorrin-Novo, L. Valledor, M. A. Castillejo, M.-D. Rey, Eds., pp. 147-156 (Springer US, 2020), each of which is hereby incorporated by reference in its entirety). […] Peptide amounts were quantified using the Pierce BCA Protein assay kit […]

Structure (SMILES) | 3H-IAA accumulation in the elongation zone (maize primary roots [1]; pils6-1 roots (absence of ZmPILS6) compared to W22) | 3H-IAA accumulation in the stele (maize primary roots [1]; pils6-1 roots compared to W22) | 3H-IAA accumulation in yeast cells (ZmPILS6) | sensitivity of primary root length to exogenous IAA (maize primary roots [2]) | proteins with altered abundance in response to IAA treatment (maize primary roots [3]; W22 roots, 1 hour) | proteins auxin-induced in W22 that are auxin-repressed in pils6-1 (maize primary roots [3]; W22 vs pils6-1 roots) | auxin-responsive proteins (maize primary roots [3]; pils6-1 roots, 1 hour)
O=C(O)Cc1c[nH]c2ccccc12 [3H-IAA] | hyperaccumulates | hypo-accumulates | significant decrease |  |  |  | 
O=C(O)Cc1c[nH]c2ccccc12 [IAA, indole-3-acetic acid] |  |  |  | less sensitive | 178 proteins | 11 proteins | 9 proteins
